pIC50: −log10 of the molar value.
System: 556581-035-R-J1-PDC spheroids with HUVEC/MSC, viability
Assay: Anticancer human tumor 556581-035-R-J1-PDC patient-derived ovarian carcinoma cell line growth inhibition [IpAb]
Details: for pIC50: curve of first compound; for viability, T/C: stronger effect = lower value
Source text: Combinatorial screen of targeted agents with ipatasertib and abemaciclib in multi-cell type tumor spheroids
A high-throughput screen of multi-cell type tumor spheroids was designed to identify active combinations of targeted small molecules and ipatasertib or abemaciclib. Complex spheroids include a stromal component modeled by human endothelial cells (HUVEC) and fibroblasts modeled by human mesenchymal stem cells (MSCs). The concentration ranges selected for each drug and investigational agent were based upon clinically achievable concentrations if the clinical Cmax of the agent was known.
Compounds. The drugs and investigational agents: ipatasertib (NSC767898), abemaciclib(NSC768073), selumetinib (NSC741078), trametinib (758246), adavosertib (NSC754352), everolimus (NSC733504), sapanisertib (NSC764658), vemurafenib (NSC761431), venetoclax (NSC766270), copanlisib (NSC809693), apelisib (NSC765974), palbociblib (NSC758247), vemurafenib (NSC761431), dabrafenib (NSC764134), ravoxertinib (NSC781343), BMS-387032 (NSC767048), sotorasib (NSC818433), talazoparib (NSC767125) and afursertib (NSC778305), were obtained from the National Cancer Institute (NCI) Developmental Therapeutics Program Chemical Repository. The FDA-approved anticancer drug set is available from the NCI Developmental Therapeutics Program. […] The stock solutions were prepared in dimethyl sulfoxide (DMSO, Sigma-Aldrich, St. Louis, MO, cat. D2650) at 800-fold the tested concentration and stored at -70 degrees C prior to their use. All drugs and investigational agents were tested over a range starting from a high concentration at or near the clinical Cmax and decreasing in half-log increments. If the clinical Cmax for an agent had not been determined, the highest concentration tested was 10 microM.
NCI60 Cell Culture. NCI60 cell lines were obtained from the NCI Developmental Therapeutics Program Tumor Repository. For each lot of cells, the Repository performed Applied Biosystems AmpFLSTR Identifiler testing with PCR amplification to confirm consistency with the published Identifier STR profile for each cell line. Cells were kept in continuous culture for no more than 20 passages. The optimal seeding densities for each of the cell lines at each time point assessed were determined prior to performing the concentration response studies. Briefly, the NCI60 human tumor lines were grown as monolayers in RPMI 1640 medium supplemented with 10% FBS and 2 mmol/L L-glutamine.
An additional 9 lines were from the NCI60 cell line panel including MDA-MB-231 breast carcinoma, MDA-MB-468 breast carcinoma, MCF7 breast carcinoma, Hs578T breast carcinoma, MALME-3M melanoma, SK-MEL-2 melanoma, SK-OV-3 ovarian carcinoma, DU-145 prostate carcinoma, PC-3 prostate carcinoma, all cell lines along with major genetic alterations are listed on Table 2. Pooled donor human umbilical vein endothelial cells (HUVEC, Lonza, cat. CC-2519) and human mesenchymal stem cells (hMSC, Lonza, cat. PT-2501) were purchased from Lonza (Walkersville, MD).
PDMR cell lines were grown in complete medium (DC medium): Dulbecco's modified Eagle's medium (DMEM)/F12 supplemented with 5% fetal bovine serum (FBS), 2 mM L-glutamine, 100 U/mL penicillin and 100 µg/ml streptomycin, 0.4 µg/ml hydrocortisone, 10 ng/ml epidermal growth factor (EGF) recombinant human protein, 24 µg/mL adenine, and 0.1 mg/mL primocin. During culture from frozen stock vials, PDMR cells were cultured in the same medium containing 10 µM Y-27632 (see Table 3). The PDCs were cultured in complete DMEM/F12 media without 10 microM Y-27632 dihydrochloride for at least two passages prior to the screen. The pooled donor HUVEC and hMSC were cultured in endothelial cell growth medium 2 (PromoCell, Heidelberg, Germany, cat. C-22011) and mesenchymal stem cell growth medium 2 (PromoCell, cat. C-28009), respectively. For all experiments, HUVEC and hMSC were used at passages </=5.
[…]

[1] = second compound 0.1 µM, first compound 0.0316 µM
[2] = second compound 0.1 µM, first compound 0.1 µM
[3] = second compound 0.316 µM, first compound 0.0316 µM
[4] = second compound 0.316 µM, first compound 0.1 µM
[5] = second compound 1 µM, first compound 0.0316 µM
[6] = second compound 1 µM, first compound 0.1 µM
[7] = second compound 3.16 µM, first compound 0.0316 µM
[8] = second compound 3.16 µM, first compound 0.1 µM
[9] = second compound 10 µM, first compound 0.0316 µM
[10] = second compound 10 µM, first compound 0.1 µM
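Note: spheroids exposed to compounds for 7 days before readout.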

C=CCn1c(=O)c2cnc(Nc3ccc(N4CCN(C)CC4)cc3)nc2n1-c1cccc(C(C)(C)O)n1 + CC(C)NCC(C(=O)N1CCN(c2ncnc3c2C(C)CC3O)CC1)c1ccc(Cl)cc1
pIC50 (second compound 0.1 µM): 6.66 | pIC50 (second compound 0.316 µM): 6.73 | pIC50 (second compound 1 µM): 6.84 | pIC50 (second compound 3.16 µM): 7.15 | pIC50 (second compound 10 µM): > 7.50 | viability, T/C [1]: 106% | viability, T/C [2]: 82.7% | viability, T/C (second compound 0.1 µM, first compound 0.316 µM): 27.3% | viability, T/C (second compound 0.1 µM, first compound 1 µM): 31.7% | viability, T/C (second compound 0.1 µM, first compound 3.16 µM): 42.9% | viability, T/C (second compound 0.1 µM, first compound 10 µM): 34.8% | viability, T/C [3]: 94.4% | viability, T/C [4]: 75.8% | viability, T/C (second compound 0.316 µM, first compound 0.316 µM): 22.9% | viability, T/C (second compound 0.316 µM, first compound 1 µM): 26.4% | viability, T/C (second compound 0.316 µM, first compound 3.16 µM): 35.1% | viability, T/C (second compound 0.316 µM, first compound 10 µM): 27.5% | viability, T/C [5]: 64.2% | viability, T/C [6]: 62.7% | viability, T/C (second compound 1 µM, first compound 0.316 µM): 18.9% | viability, T/C (second compound 1 µM, first compound 1 µM): 22% | viability, T/C (second compound 1 µM, first compound 3.16 µM): 27.4% | viability, T/C (second compound 1 µM, first compound 10 µM): 26.4% | viability, T/C [7]: 60.8% | viability, T/C [8]: 45.5% | viability, T/C (second compound 3.16 µM, first compound 0.316 µM): 17.2% | viability, T/C (second compound 3.16 µM, first compound 1 µM): 13.2% | viability, T/C (second compound 3.16 µM, first compound 3.16 µM): 23.2% | viability, T/C (second compound 3.16 µM, first compound 10 µM): 22.8% | viability, T/C [9]: 43.3% | viability, T/C [10]: 35.9% | viability, T/C (second compound 10 µM, first compound 0.316 µM): 14.8% | viability, T/C (second compound 10 µM, first compound 1 µM): 11.6% | viability, T/C (second compound 10 µM, first compound 3.16 µM): 18.2% | viability, T/C (second compound 10 µM, first compound 10 µM): 19.7%

CC(C)n1nc(-c2ccc3oc(N)nc3c2)c2c(N)ncnc21 + CC(C)NCC(C(=O)N1CCN(c2ncnc3c2C(C)CC3O)CC1)c1ccc(Cl)cc1
pIC50 (second compound 0.1 µM): 8.19 | pIC50 (second compound 0.316 µM): 8.22 | pIC50 (second compound 1 µM): 8.45 | pIC50 (second compound 3.16 µM): 8.83 | pIC50 (second compound 10 µM): > 9.50 | viability, T/C (second compound 0.1 µM, first compound 0.000316 µM): 87.8% | viability, T/C (second compound 0.1 µM, first compound 0.001 µM): 68.8% | viability, T/C (second compound 0.1 µM, first compound 0.00316 µM): 60.1% | viability, T/C (second compound 0.1 µM, first compound 0.01 µM): 47.6% | viability, T/C [1]: 29.3% | viability, T/C [2]: 24.7% | viability, T/C (second compound 0.316 µM, first compound 0.000316 µM): 69.5% | viability, T/C (second compound 0.316 µM, first compound 0.001 µM): 65.1% | viability, T/C (second compound 0.316 µM, first compound 0.00316 µM): 58% | viability, T/C (second compound 0.316 µM, first compound 0.01 µM): 40.9% | viability, T/C [3]: 36.6% | viability, T/C [4]: 21.3% | viability, T/C (second compound 1 µM, first compound 0.000316 µM): 58.6% | viability, T/C (second compound 1 µM, first compound 0.001 µM): 67.1% | viability, T/C (second compound 1 µM, first compound 0.00316 µM): 50.4% | viability, T/C (second compound 1 µM, first compound 0.01 µM): 34% | viability, T/C [5]: 28.6% | viability, T/C [6]: 25.2% | viability, T/C (second compound 3.16 µM, first compound 0.000316 µM): 63.4% | viability, T/C (second compound 3.16 µM, first compound 0.001 µM): 52.4% | viability, T/C (second compound 3.16 µM, first compound 0.00316 µM): 44.1% | viability, T/C (second compound 3.16 µM, first compound 0.01 µM): 34.1% | viability, T/C [7]: 27.5% | viability, T/C [8]: 18.5% | viability, T/C (second compound 10 µM, first compound 0.000316 µM): 48% | viability, T/C (second compound 10 µM, first compound 0.001 µM): 44% | viability, T/C (second compound 10 µM, first compound 0.00316 µM): 36.8% | viability, T/C (second compound 10 µM, first compound 0.01 µM): 25.7% | viability, T/C [9]: 17.1% | viability, T/C [10]: 16.4%

Reference: PubChem BioAssay AID2060338 (Molecular Pharmacology Branch, DTP, NCI, 2025)
